The source of these data is the OPERA property sets (Mansouri et al. 2018).

The compound `O=C1NC(=O)N(c2ccccc2)C1=O` yielded a lipophilicity (logP) of 0.6.

Consider `O=C1NC(=O)N(Cc2ccccc2)C1=O`, for which the lipophilicity (logP) amounted to 1.19.

As to `O=C1NC(=O)C(c2ccccc2)O1` (configuration not stated), the logP was 1.09.

The compound `O=C1CN(Cc2ccccc2)C(=O)N1` registered a logP of 0.76.

The compound `O=C1CC(=O)C(c2ccccc2)N1` (configuration not stated) returned a log partition coefficient (logP) of 0.48.

Take `O=C1CC(=O)N(Cc2ccccc2)C1`: the log partition coefficient (logP) came out at 0.76.

In turn, `O=C1CN(c2ccccc2)C(=O)N1` gave a logP of 0.83.

The compound `O=C1NC(=O)C(Cc2ccccc2)O1` (configuration not stated) had a logP of 1.2.

Turning to `O=C1NC(=O)C(Cc2ccccc2)N1` (configuration not stated), the logP was determined as 0.6.

In the case of `O=C1NC(=O)C(c2ccccc2)C1=O` (configuration not stated), the logP came to 2.26.

The compound `O=C1CC(=O)N(c2ccccc2)O1` showed a logP of 0.54.

The compound `O=C1NC(=O)C(Cc2ccccc2)S1` (configuration not stated) returned a logP of 1.98.

On to `NS(=O)(=O)NC(=O)Cc1ccccc1`, for which the logP amounted to 0.31.

Consider `NC(=O)NS(=O)(=O)Cc1ccccc1`, for which the logP was found to be 0.24.

For the compound `O=C1CNC(=O)N1c1ccccc1`, the logP was found to be 0.04.

Compound `O=C1CC(=O)C(c2ccccc2)O1` (configuration not stated) registered a logP of 1.47.

Regarding `O=c1[nH]c(=O)n(-c2ccccc2)o1`, the logP was determined as 1.74.

As usually defined, the logP is a log measure of how a compound divides between an organic and an aqueous phase. Read a low logP as lower lipophilicity.
